Assay results: patent US5495046A, “Alkoxyphenylalkylamine derivatives” (Taisho Pharmaceutical Co., Ltd., priority 1991, dated 1996)
Structures can show the parent of a compound that is named as a salt. Where two headings read alike, the source gives them in different places.

What was measured:
sigma receptor [1] = target: sigma receptor (Rattus norvegicus, UniProt Q9R0C9); test: biochemical; format: binding, rat (male Wistar)
Experimental: (§1) Receptor Binding Experiment
(§2) As test animals, male Wistar rats were used.
(§3) As a [^3 H]-labeled ligand, (+)[^3 H]3-PPP [3-(3-hydroxyphenyl)-N-n-propylpiperidine] was used for sigma receptor, while (-)[^3 H] sulpiride was used for D2 receptor.
(§4) Binding reactions with the use of these [^3 H]-labeled ligands were performed respectively in accordance with the following methods (1) and (2) described in Molecular Pharmacology, 32, p. 772 (1987) and Journal of Pharmacy and Pharmacology, 32, p. 820 (1987).
(1) (+) [^3 H] 3-PPP binding: A membrane preparation obtained from the whole brain of rat, (+) [^3 H] 3-PPP and a test drug were reacted in a 50 mM Tris hydrochloride buffer (pH 8.0) at 21° C. for 90 minutes.
(§5) After the completion of each reaction, the reaction mixture was filtered under sucking onto a glass filter (GF/B) and the radioactivity of the filter paper was measured with a liquid scintillation spectrometer.
The data obtained by reacting in the presence of 10 μM (+) 3-PPP and 10 μM (-) thiapride were regarded respectively as the nonspecific binding of (+) [^3 H] 3-PPP and (-) [^3 H] sulpiride. Then the difference between the total binding and the nonspecific binding was referred to as the specific binding.

D2 receptor [2] = target: D2 receptor (Rattus norvegicus, UniProt P61169); test: Receptor binding experiment: (-)[3H] sulpiride binding; design: species or system rat (male Wistar)
Experimental: as §1, §2, §3, §4
(2) (-) [^3 H] sulpiride binding: A membrane preparation obtained from the corpus striatum of rat, (-) [^3 H] sulpiride and a test drug were reacted in a 50 mM Tris hydrochloride buffer (pH 7.7) at 37° C. for 10 minutes.
as §5
The data obtained by reacting in the presence of 10 μM (+) 3-PPP and 10 μM (-) thiapride were regarded respectively as the nonspecific binding of (+) [^3 H] 3-PPP and (-) [^3 H] sulpiride. Then the difference between the total binding and the nonspecific binding was referred to as the specific binding. The [^3 H]-labeled ligand at a definite concentration and the test drug at various concentrations were reacted under the conditions as specified in the above (1) or (2) to thereby give an inhibition curve.

[3] = system: (+) SKF 10047-induced abnormal behaviors; test: Antagonism against (+) SKF 10047-induced abnormal behaviors; format: in vivo, ICR male mice; conditions: Mus musculus
Experimental: Examination on Antagonism Against (+) SKF 10047-induced Abnormal Behaviors
Preparations were formulated by dissolving 10 mg of each test drug in 1 ml of dimethylsulfoxide, diluting with physiological saline to a concentration of […], and further diluting the obtained solution to 0.01 and 0.001 mg/kg (administration dose: 0.1 ml per 10 g body weight of mouse).
The invention compound A, the comparative drug AA and Rimcazole were each orally administered in doses of 0.03, 0.1, 0.3, 1.0, 3.0 and 10.0 mg/kg. Preparations were formulated by suspending in a 5% solution of acacia.
(+) SKF10047 [(+)-N-allylnormetazocine hydrochloride; manufactured by Sigma] was intraperitoneally administered in a dose of 30 mg/kg. The preparation was formulated by dissolving in physiological saline.
As test animals, ICR male mice (Nippon Charles River) aged 4 to 5 weeks were used. Each group had 10 animals.
Each animal was introduced into a transparent acrylic resin cage (24 cm in length×17.5 cm in width×12 cm in height) and allowed to fully adapt to the environment. 35 minutes after the administration of a preparation of a test drug, (+) SKF10047 was administered. […]] were evaluated for 40 minutes at intervals of 5 minutes and the ED25 (mg/kg) was determined.

sigma receptor [4] = conditions: cited from earlier work
D2 receptor [5] = conditions: value obtained from spiperone binding; European Journal of Pharmacology, 155, p. 345 (1988); cited from earlier work
[6] = (+)[3H]3-PPP, rat whole brain membrane, pH 8.0, 21° C., 90 minutes
[7] = read-out: 50% inhibitory concentration (IC50), Sigma, (+)[3H]3-PPP, rat whole brain membrane, pH 8.0, 21° C., 90 minutes
[8] = read-out: 50% inhibitory concentration (IC50), D2, (-)[3H] sulpiride, rat corpus striatum membrane, pH 7.7, 37° C., 10 minutes
[9] = (-)[3H] sulpiride, rat corpus striatum membrane, pH 7.7, 37° C., 10 minutes
[10] = oral, 35 minutes before (+) SKF10047 30 mg/kg i.p., stereotypy scores for 40 minutes at intervals of 5 minutes, read-out: ED25

sigma receptor (Rattus norvegicus, UniProt Q9R0C9), sequence (Q9R0C9 whole entry): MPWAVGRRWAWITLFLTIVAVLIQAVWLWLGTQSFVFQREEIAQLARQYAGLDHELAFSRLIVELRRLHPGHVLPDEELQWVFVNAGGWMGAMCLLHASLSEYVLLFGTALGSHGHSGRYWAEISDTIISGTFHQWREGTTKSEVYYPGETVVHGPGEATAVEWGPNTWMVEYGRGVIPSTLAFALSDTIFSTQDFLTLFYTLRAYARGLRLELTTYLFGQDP
D2 receptor (Rattus norvegicus, UniProt P61169), sequence (P61169 whole entry): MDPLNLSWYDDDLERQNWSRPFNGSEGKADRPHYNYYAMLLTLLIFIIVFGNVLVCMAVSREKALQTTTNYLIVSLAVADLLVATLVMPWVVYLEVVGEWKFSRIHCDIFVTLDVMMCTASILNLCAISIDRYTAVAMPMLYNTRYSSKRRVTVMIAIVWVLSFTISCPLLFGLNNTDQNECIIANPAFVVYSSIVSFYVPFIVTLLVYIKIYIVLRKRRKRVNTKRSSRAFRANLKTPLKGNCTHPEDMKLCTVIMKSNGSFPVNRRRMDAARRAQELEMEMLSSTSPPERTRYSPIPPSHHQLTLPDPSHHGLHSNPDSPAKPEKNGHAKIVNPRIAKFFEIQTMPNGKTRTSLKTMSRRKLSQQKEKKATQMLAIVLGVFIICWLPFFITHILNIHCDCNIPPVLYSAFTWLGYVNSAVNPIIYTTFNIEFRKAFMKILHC

CCCN1CCCC(c2cccc(O)c2)C1 (single isomer, unassigned) [Compound 3-PPP, 3-(3-hydroxyphenyl)-N-n-propylpiperidine, reference compound]
IC50 (sigma receptor [1]; [6]): 24.3 nM

CCCN(CCC)CCc1cc(Cl)ccc1OCCc1ccccc1.O=C(O)C(=O)O [A, N,N-Di-n-propyl-2-[5-chloro-2-(2-phenylethoxy)phenyl]ethylamine oxalate]
IC50 (sigma receptor [1]; [7]): 7.21 nM | IC50 (D2 receptor [2]; [8]): 112 nM | ED25 ([3]; po): 0.235 mg/kg

COc1ccc(CCN(C)C)cc1OCc1ccccc1.Cl [AA, N,N-dimethyl-2-(4-methoxy-3-benzyloxyphenyl)ethylamine hydrochloride, reference compound]
IC50 (sigma receptor [1]): 94.4 nM | IC50 (D2 receptor [2]): 40800 nM | ED25 ([3]; po): 23.6 mg/kg

CCCN(CCC)CCCc1cc(Cl)ccc1OCCc1ccccc1 [B, N,N-Di-n-propyl-3-[5-chloro-2-(2-phenylethoxy)phenyl]propylamine oxalate]
IC50 (sigma receptor [1]; [6]): 28.9 nM | IC50 (D2 receptor [2]; [9]): > 1000 nM

CCCN(CCC)CCCCc1cc(Cl)ccc1OCCc1ccccc1 [C, N,N-Di-n-propyl-4-[5-chloro-2-(2-phenylethoxy)phenyl]butylamine oxalate]
IC50 (sigma receptor [1]; [6]): 26.4 nM

CCCN(CCC)CCc1ccc(Cl)cc1OCCc1ccccc1 [D, N,N-Di-n-propyl-2-[4-chloro-2-(2-phenylethoxy)phenyl]ethylamine hydrochloride]
IC50 (sigma receptor [1]; [7]): 17.9 nM | IC50 (D2 receptor [2]): 1450 nM

CCCN(CCC)CCc1cc(Br)ccc1OCCc1ccccc1 [E, N,N-Di-n-propyl-2-[5-bromo-2-(2-phenylethoxy)phenyl]ethylamine oxalate]
IC50 (sigma receptor [1]; [7]): 11.1 nM | IC50 (D2 receptor [2]; [8]): 169 nM

CCCN(CCC)CCCc1cc(Br)ccc1OCCc1ccccc1 [F, N,N-Di-n-propyl-3-[5-bromo-2-(2-phenylethoxy)phenyl]propylamine oxalate]
IC50 (sigma receptor [1]; [7]): 10.9 nM | IC50 (D2 receptor [2]; [8]): 438 nM

CCCN(CCC)CCc1cc(F)ccc1OCCc1ccccc1 [G, N,N-Di-n-propyl-2-[5-fluoro-2-(2-phenylethoxy)phenyl]ethylamine hydrochloride]
IC50 (sigma receptor [1]): 13.3 nM | IC50 (D2 receptor [2]): 1910 nM

CCCN(CCC)CCc1cccc(F)c1OCCc1ccccc1 [H, N,N-Di-n-propyl-2-[3-fluoro-2-(2-phenylethoxy)phenyl]ethylamine oxalate]
IC50 (sigma receptor [1]): 21.6 nM | IC50 (D2 receptor [2]): 3520 nM

CCCN(CCC)CCc1ccc(OC)c(OCCc2ccccc2)c1.O=C(O)C(=O)O [I, N,N-Di-n-propyl-2-[4-methoxy-3-(2-phenylethoxy)phenyl]ethylamine oxalate]
IC50 (D2 receptor [2]): > 1000 nM | ED25 ([3]; po): 0.0008 mg/kg

CCCN(CCC)CCCc1ccc(OC)c(OCCc2ccccc2)c1.O=C(O)C(=O)O [J, N,N-Di-n-propyl-3-[4-methoxy-3-(2-phenylethoxy)phenyl]propylamine oxalate]
IC50 (sigma receptor [1]; [6]): 0.984 nM | IC50 (D2 receptor [2]; [8]): 950 nM | ED25 [3, 10]: 0.00263 mg/kg

CCCN(CCC)CCc1ccc(OC)c(OCCCc2ccccc2)c1 [K, N,N-Di-n-propyl-2-[4-methoxy-3-(3-phenylpropoxy)phenyl]ethylamine oxalate]
IC50 (sigma receptor [1]; [7]): 4.7 nM

COc1ccc(CCN2CCN(c3ccccc3)CC2)cc1OCCc1ccccc1 [L, N-2-[4-Methoxy-3-(2-phenylethoxy)phenyl]ethyl-N'-phenylpiperazine oxalate]
IC50 (sigma receptor [1]; [7]): 33 nM | IC50 (D2 receptor [2]; [8]): 183 nM

CCCN(CCC)CCc1ccc(O)c(OCCc2ccccc2)c1 [M, N,N-Di-n-propyl-2-[4-hydroxy-3-(2-phenylethoxy)phenyl]ethylamine hydrochloride]
IC50 (sigma receptor [1]; [7]): 3.09 nM | IC50 (D2 receptor [2]): 2500 nM

CCCN(CCC)CCc1ccc(OC)c(OCCc2ccc(F)cc2)c1 [N, N,N-Di-n-propyl-2-[4-methoxy-3-[2-(4-fluorophenyl)ethoxy]phenyl]ethylaminehydrochloride]
IC50 (sigma receptor [1]): 1.03 nM | IC50 (D2 receptor [2]; [9]): > 10000 nM

CCCN(CCC)CCc1ccc(OC)c(OCCc2cccc(Cl)c2)c1 [O, N,N-Di-n-propyl-2-[4-methoxy-3-[2-(3-chlorophenyl)ethoxy]phenyl]ethylamineoxalate]
IC50 (sigma receptor [1]; [7]): 1.49 nM | IC50 (D2 receptor [2]; [9]): 6600 nM

CCCN(CCC)CCc1ccc(OC)c(OCCc2ccc(OC)cc2)c1 [P, N,N-Di-n-propyl-2-[4-methoxy-3-[2-(4-methoxyphenyl)ethoxy]phenyl]ethylamine oxalate]
IC50 (sigma receptor [1]): 1.03 nM | IC50 (D2 receptor [2]): 4990 nM

CCCN(CCC)CCc1ccc(OC)c(OCCc2cccs2)c1 [Q, N,N-Di-n-propyl-2-[4-methoxy-3-[2-(2-thienyl)ethoxy]phenyl]ethylamine hydrochloride]
IC50 (sigma receptor [1]; [7]): 9.35 nM | IC50 (D2 receptor [2]): > 10000 nM

CCCN(CCC)CCc1ccc(OCCc2ccccc2)c(OC)c1 [R, N,N-Di-n-propyl-2-[3-methoxy-4-(2-phenylethoxy)phenyl]ethylamine oxalate]
IC50 (sigma receptor [1]): 11.5 nM | IC50 (D2 receptor [2]): > 10000 nM

C[C@@H]1CN(CCCn2c3ccccc3c3ccccc32)C[C@H](C)N1 [Rimcazole]
ED25 [3, 10]: 37 mg/kg | affinity and specificity for sigma receptor (in words) (sigma receptor [4]; background art statement): restricted | IC50 (sigma receptor [4]; data of European Journal of Pharmacology, 155, p. 345 (1988)): 1640 nM | IC50 (D2 receptor [5]): 86 µM

CCCN(CCCO)CCc1ccc(OC)c(OCCc2ccccc2)c1 [S, N-n-propyl-N-3-hydroxypropyl-2-[4-methoxy-3-(2-phenylethoxy)phenyl]ethylamine oxalate]
IC50 (sigma receptor [1]; [6]): 18.5 nM | IC50 (D2 receptor [2]; [9]): > 10000 nM

CCCN(CCC)CCc1cccc(OC)c1OCCc1ccccc1.O=C(O)C(=O)O [T, N,N-Di-n-propyl-2-[3-methoxy-2-(2-phenylethoxy)phenyl]ethylamine oxalate]
IC50 (sigma receptor [1]; [7]): 2.71 nM | IC50 (D2 receptor [2]): > 10000 nM | ED25 ([3]; po): 0.0017 mg/kg

CCCN(CCC)CCCc1cccc(OC)c1OCCc1ccccc1 [U, N,N-Di-n-propyl-3-[3-methoxy-2-(2-phenylethoxy)phenyl]propylamine oxalate]
IC50 (sigma receptor [1]; [6]): 12.5 nM

CCCN(CCC)CCc1cccc(OC)c1OCCCc1ccccc1 [V, N,N-Di-n-propyl-2-[3-methoxy-2-(3-phenylpropoxy)phenyl]ethylamine oxalate]
IC50 (sigma receptor [1]): 1.65 nM

COc1cccc(CCN2CCCC2)c1OCCc1ccccc1 [W, N-2-[3-Methoxy-2-(2-phenylethoxy)phenyl]ethylpyrrolidine oxalate]
IC50 (D2 receptor [2]): 5350 nM

CCCN(CCC)CCc1cc(OC)ccc1OCCc1ccccc1 [X, N,N-Di-n-propyl-2-[5-methoxy-2-(2-phenylethoxy)phenyl]ethylamine hydrochloride]
IC50 (sigma receptor [1]; [7]): 7.06 nM | IC50 (D2 receptor [2]; [8]): 791 nM

CCCN(CCC)CCc1ccc(OC)cc1OCCc1ccccc1 [Y, N,N-Di-n-propyl-2-[4-methoxy-2-(2-phenylethoxy)phenyl]ethylamine oxalate]
IC50 (sigma receptor [1]; [7]): 6.6 nM | IC50 (D2 receptor [2]): 2350 nM

CCCN(CCC)CCc1ccc(OCCc2ccccc2)cc1OC [Z, N,N-Di-n-propyl-2-[2-methoxy-4-(2-phenylethoxy)phenyl]ethylamine oxalate]
IC50 (sigma receptor [1]; [7]): 6.83 nM | IC50 (D2 receptor [2]): 9180 nM
